The values that follow come from patent US9221784B2, “Benzo[1,3]dioxine derivatives and their use as LPAR5 antagonists” (SANOFI, priority 2012, dated 2015).

Common to all, as to assay type: cell-based
Assay [1] has as its target T1, LPA receptor LPAR5 (Homo sapiens, UniProt Q9H1C0). The assay is described as follows: FLIPR assay, intracellular Ca2+ release in human mast cell line HMC-1. The settings on record: human mast cell line HMC-1, LPA-stimulated Ca2+ release, test compounds added 10 minutes prior LPA. Set-up: two cell lines were used with high LPAR5 expression; endogenous in cells; host or cells: HMC-1 human mast cell line. From the text: (§1) B) Use of the Fluorometric Imaging Plate Reader (FLIPR) Assay for the Determination of Intracellular Ca^2+ Release in Human Mast Cell Line HMC-1 and the Murine Microglia Cell Line BV-2
(§2) The ability of the compounds of the formula I to inhibit or bind the LPA receptor LPAR5 can be assessed by determining the intracellular Ca^2+ release in human or animal cells. For the analysis of activating potential of LPA and the inhibitory effects of compounds of the formula I two cell lines were used with high LPAR5 expression, the human mast cell line HMC-1 and the murine microglia cell line BV-2 (Figures 1 and 2). For the FLIPR assay using human mast cells in a 96-well-format, HMC-1 suspension cells from flask culture were harvested, resuspended and counted. 14×10^6 HMC-1 cells were transferred into a new 50 ml tube, centrifuged for 3 minutes at 540×g. The resulting cell pellet at the bottom of the tube was resuspended with 15 ml loading buffer (loading buffer contained HBSS buffer (pH 7.4), 0.1% BSA (bovine serum albumin), 2 μM FLUO-4 dye; HBSS buffer (pH 7.4) contained 1×HBSS, 20 mM HEPES, 0.01% Pluronic F-127, 2.5 mM Probenicid).
Cells in loading buffer were incubated for 45-60 minutes at 37° C. After incubation cells were centrifuged for 3 minutes at 540×g and resuspended with 21 ml of HBSS buffer (pH 7.4). Each well of a poly-D-lysine coated 96-well-plate was filled with 150 μl cell solution, an equivalent of 100 000 cells/well. The 96-well-plate was centrifuged for 2 minutes at 100×g (without brake) prior a recovery time of 30 minutes at 37° C. After this procedure cells were stimulated with LPA (in HBSS pH 7.4 and 0.1% BSA) to determine the EC50 of LPA in HMC-1 cells. For the determination of the inhibitory effect of compounds of the formula I, test compounds were added to the cells in the 96-well-plate 10 minutes prior the addition of LPA. Results of the assay are expressed as % activation, and are calculated using maximum peak of activation (Amax). The IC50 data of the above described FLIPR assay using human mast cell line HMC-1 for exemplary compounds of the present invention are shown in Table 2. Adherent BV-2 cells were seeded onto poly-D-lysine coated 96-well-plates (100000 cells/well) the day before performing the FLIPR assay. The density of the cells in the 96-well-plate at the day of the FLIPR assay should be 90%. After aspiration of the culture media, BV-2 cells were incubated for 30 minutes at 37° C. with loading buffer and recovered in 150 μl HBSS buffer for 30 minutes at 37° C. After this procedure cells were stimulated with LPA (in HBSS pH 7.4 and 0.1% BSA) to determine the EC50 of LPA in BV-2 cells. For the determination of the inhibitory effect of compounds of the formula I, test compounds were added to the cells in the 96-well-plate 10 minutes prior the addition of LPA. The IC50 data of the above described FLIPR assay using the murine microglia cell line BV-2 for exemplary compounds of the present invention are shown in Table 3.

For assay [2], the target named is T2, LPA receptor LPAR5 (Mus musculus, UniProt Q149R9).
T2 construct: two cell lines were used with high LPAR5 expression; endogenous in cells; host or cells: BV-2 murine microglia cell line
T2 sequence (Q149R9 whole entry): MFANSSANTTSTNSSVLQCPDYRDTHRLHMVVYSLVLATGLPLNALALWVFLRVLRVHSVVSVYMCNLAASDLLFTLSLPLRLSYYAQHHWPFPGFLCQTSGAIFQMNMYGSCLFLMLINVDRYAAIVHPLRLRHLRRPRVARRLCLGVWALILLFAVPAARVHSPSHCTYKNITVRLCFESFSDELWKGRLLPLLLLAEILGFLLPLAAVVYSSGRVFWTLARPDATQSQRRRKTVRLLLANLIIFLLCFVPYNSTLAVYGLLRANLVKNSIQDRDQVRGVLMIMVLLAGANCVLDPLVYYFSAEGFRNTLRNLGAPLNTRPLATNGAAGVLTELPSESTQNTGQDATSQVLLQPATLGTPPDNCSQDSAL
Kind of assay: FLIPR assay, intracellular Ca2+ release in murine microglia cell line BV-2. Conditions: murine microglia cell line BV-2, LPA-stimulated Ca2+ release, test compounds added 10 minutes prior LPA.
Text: as §1, §2
Cells in loading buffer were incubated for 45-60 minutes at 37° C. After incubation cells were centrifuged for 3 minutes at 540×g and resuspended with 21 ml of HBSS buffer (pH 7.4). Each well of a poly-D-lysine coated 96-well-plate was filled with 150 μl cell solution, an equivalent of 100 000 cells/well. The 96-well-plate was centrifuged for 2 minutes at 100×g (without brake) prior a recovery time of 30 minutes at 37° C. After this procedure cells were stimulated with LPA (in HBSS pH 7.4 and 0.1% BSA) to determine the EC50 of LPA in HMC-1 cells. For the determination of the inhibitory effect of compounds of the formula I, test compounds were added to the cells in the 96-well-plate 10 minutes prior the addition of LPA. Results of the assay are expressed as % activation, and are calculated using maximum peak of activation (Amax). […]

The target in assay [3] is T1, LPA receptor LPAR5. Kind of assay: Aggregation assay for washed human blood platelets (LPA-induced). Conditions: reduction of the maximal aggregation, 5 minutes incubation at 37° C. The method, then: A) Aggregation Assay for Washed Human Blood Platelets (Thrombocytes)
Whole blood was collected from healthy volunteers using 3×20 ml syringes containing each 1/10 volume of buffered citrate. The anticoagulated whole blood was transferred into 50 ml polypropylene conical tubes (30 ml per tube). The tubes were centrifuged for 10 minutes at 150×g at room temperature without using the centrifuge brake. This procedure results in a lower phase of cellular components and a supernatant (upper phase) of platelet rich plasma (PRP). The PRP phase was collected from each tube and pooled for each donor. To avoid carry over of cellular components following first centrifugation, approximately 5 ml of PRP was left in the tube. The platelet concentration was determined using a ABX Micros 60 counter. The PRP phase was transferred to a new 50 ml tube. After 10 minutes standing at room temperature, 1 μl PGI2 (1 mM in Tris-HCl/pH 8.8) and 180 μl ACD/A were added per ml PRP. The PRP was then transferred to new 10 ml tube and centrifuged for 10 minutes at 500×g. After centrifugation a cellular pellet is visible at the bottom of the tube. The supernatant was carefully discarded and the cellular pellet, consisting of human blood platelets was then dissolved in 10 ml buffer T (buffer T composition: 145 mM NaCl, 5 mM KCl, 0.1 mM MgCl2×6 H2O, 15 mM HEPES, 5.5 mM glucose, pH 7.4). Platelet concentration in this solution was determined and buffer T was added to obtain a final concentration of 3.5×10^5 platelets per ml.
After 10 minutes at room temperature, 1 μl PGI2 per ml platelet solution was added and distributed into new 10 ml tubes. After a centrifugation step, 10 minutes at 500×g, supernatant was discarded and the platelets were resuspended in buffer T to a final concentration of 3.5×10^5 platelets per ml buffer T. Before use, platelet-containing buffer equilibrated for 30 minutes at room temperature. The human platelet aggregation assay was performed in single use cuvettes using the Platelet Aggregation Profiler® (PAP-4 or -8E, BIO/DATA Corporation). For a single experiment, 320 μl of platelet solution were transferred into an assay cuvette, 20 μl of calcium citrate solution (10 mM in H2O) and 20 μl of fibrinogen solution (20 mg/ml H2O) were added. The aggregation assay was performed in the assay cuvette at 37° C. and with 1.200 rpm stirring. To determine the EC50, eight assay cuvettes were loaded as described above with different concentrations of LPA. Aggregation was measured over 6 minutes at 37° C. with 1200 rpm (revolutions per minute) stirring. Results of the assay are expressed as % activation, and are calculated using maximum aggregation (Tmax) or area under curve (AUC) of the absorbance over 6 minutes. The inhibitory effect (IC50) of the test compounds was determined as the reduction of the maximal aggregation. Test compound was added prior starting the experiment with an incubation time of the test compound of 5 minutes at 37° C. with 1200 rpm stirring. The IC50 data of the above described platelet aggregation assay using human washed platelets for exemplary compounds of the present invention are shown in Table 1.

T1 sequence (Q9H1C0 whole entry): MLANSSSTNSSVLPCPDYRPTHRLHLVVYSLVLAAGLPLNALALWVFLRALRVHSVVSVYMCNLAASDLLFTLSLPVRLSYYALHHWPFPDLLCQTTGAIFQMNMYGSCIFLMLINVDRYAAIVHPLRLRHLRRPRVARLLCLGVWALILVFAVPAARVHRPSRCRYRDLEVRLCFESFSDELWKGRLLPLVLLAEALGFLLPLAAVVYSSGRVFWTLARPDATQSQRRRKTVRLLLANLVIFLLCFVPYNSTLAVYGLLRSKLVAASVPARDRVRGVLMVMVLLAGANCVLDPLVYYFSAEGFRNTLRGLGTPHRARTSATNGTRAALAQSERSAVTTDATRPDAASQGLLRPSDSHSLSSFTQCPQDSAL

In the case of `O=C(O)C1Oc2ccc(Cl)cc2C(C2CCCCC2)(C2CCCCC2)O1` (centres unmarked) [Example 1, 6-Chloro-4,4-dicyclohexyl-4H-benzo[1,3]dioxine-2-carboxylic acid], the results for the IC50 against LPA receptor LPAR5 [1], on LPA receptor LPAR5 [2] and against LPA receptor LPAR5 [3] were 3.2 µM, 4.1 µM and 1.1 µM, respectively.

As to `Cc1cccc2c1OC(C(=O)O)OC2(C1CCCCC1)C1CCCCC1` (centres unmarked) [Example 12, 4,4-Dicyclohexyl-8-methyl-4H-benzo[1,3]dioxine-2-carboxylic acid], 8 µM corresponded to half-maximal inhibition at LPA receptor LPAR5 [2] (IC50). This counts as single-digit micromolar.

On to `O=C(O)C1Oc2ccc(OC(F)(F)F)cc2C(C2CCCCC2)(C2CCCCC2)O1` (centres unmarked) [Example 18, 4,4-Dicyclohexyl-6-trifluoromethoxy-4H-benzo[1,3]dioxine-2-carboxylic acid], for which the IC50 against LPA receptor LPAR5 [1] and against LPA receptor LPAR5 [2] was 1.5 µM in each case.

Turning to `CCOc1cccc2c1C(C1CCCCC1)(C1CCCCC1)OC(C(=O)O)O2` (centres unmarked) [Example 30, 4,4-Dicyclohexyl-5-ethoxy-4H-benzo[1,3]dioxine-2-carboxylic acid], on LPA receptor LPAR5 [3], the half-inhibitory concentration (IC50) (commonly the concentration that inhibits the measured activity by half) worked out at 5.9 µM.

In the case of `COc1cc(C)c2c(c1)OC(C(=O)O)OC2(C1CCCCC1)C1CCCCC1` (centres unmarked) [Example 36, 4,4-Dicyclohexyl-7-methoxy-5-methyl-4H-benzo[1,3]dioxine-2-carboxylic acid], 2.4 µM corresponded to half-maximal inhibition against LPA receptor LPAR5 [3] (IC50). This IC50 is about 2.5-fold lower than that of the molecule before.

Regarding `O=C(O)C1Oc2cc(OCc3ccccc3)ccc2C(C2CCCCC2)(C2CCCCC2)O1` (centres unmarked) [Example 37, 7-Benzyloxy-4,4-dicyclohexyl-4H-benzo[1,3]dioxine-2-carboxylic acid], the IC50 on LPA receptor LPAR5 [1] is 3.6 µM; against LPA receptor LPAR5 [3], 11.3 µM.

Consider `O=C(O)C1Oc2c(OC(F)(F)F)cccc2C(C2CCCCC2)(C2CCCCC2)O1` (centres unmarked) [Example 46, 4,4-Dicyclohexyl-8-trifluoromethoxy-4H-benzo[1,3]dioxine-2-carboxylic acid], for which the IC50 came to 3.2 µM against LPA receptor LPAR5 [1] and 5.4 µM at LPA receptor LPAR5 [3].

For the molecule `CCN(CC)c1ccc2c(c1)OC(C(=O)O)OC2(C1CCCCC1)C1CCCCC1` (centres unmarked) [Example 49, 4,4-Dicyclohexyl-7-diethylamino-4H-benzo[1,3]dioxine-2-carboxylic acid], the IC50 against LPA receptor LPAR5 [1] is 3.6 µM; on LPA receptor LPAR5 [3] it was 2.7 µM.
